Measurements published in ChEMBL document CHEMBL4417631, “Oral peptide inhibitors of interleukin-23 receptor and their use to treat inflammatory bowel diseases” (2017).
*1 amine or outer side, *2 acyl side, *3 side chain or, on linkers, in order; H or OH if unused. Where a SMILES comes first, the peptide text is derived from it. Bridges are numbered along the chain shown (N, C = ends). [ ]: non-standard residue; d: D form. The star is where a group is joined. Abu(4-yl) = O=C([C@H](CC[*:3])N[*:1])[*:2]; AEF = NCCOc1ccc(C[C@H](N)C(=O)O)cc1; Tic = O=C(O)[C@@H]1Cc2ccccc2CN1; αMeK = C[C@](N)(CCCCN)C(=O)O; Dap = NC[C@H](N)C(=O)O; OBn = c1ccc(CO*)cc1

Target: T1, Interleukin-23 receptor (Homo sapiens, UniProt Q5VWK5)
T1 sequence (Q5VWK5 whole entry): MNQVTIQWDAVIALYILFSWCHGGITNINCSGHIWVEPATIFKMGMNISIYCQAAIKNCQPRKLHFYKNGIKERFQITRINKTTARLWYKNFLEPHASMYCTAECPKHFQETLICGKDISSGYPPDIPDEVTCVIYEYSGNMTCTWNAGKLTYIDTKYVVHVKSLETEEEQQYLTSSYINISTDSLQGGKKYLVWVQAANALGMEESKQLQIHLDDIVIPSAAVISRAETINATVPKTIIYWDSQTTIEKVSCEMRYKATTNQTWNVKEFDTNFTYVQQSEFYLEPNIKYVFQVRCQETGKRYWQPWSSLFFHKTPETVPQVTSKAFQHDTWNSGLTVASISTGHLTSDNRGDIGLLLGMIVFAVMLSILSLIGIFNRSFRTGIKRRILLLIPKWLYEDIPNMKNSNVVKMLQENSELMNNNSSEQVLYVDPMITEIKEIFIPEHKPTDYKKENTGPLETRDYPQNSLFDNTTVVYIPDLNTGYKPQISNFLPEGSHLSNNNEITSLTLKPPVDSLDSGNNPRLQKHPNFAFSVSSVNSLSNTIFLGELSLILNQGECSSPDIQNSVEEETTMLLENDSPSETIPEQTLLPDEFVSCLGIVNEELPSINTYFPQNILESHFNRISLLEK
Experiment: Inhibition of interleukin-23 binding to human interleukin-23 receptor incubated for 2 hrs by competitive binding ELISA

Compared with `CC(=O)N[C@@H](CS)C(=O)N[C@@H](C)C(=O)N[C@@H](CC(=O)O)C(=O)N[C@@H](Cc1c[nH]c2ccccc12)C(=O)N[C@H](C(=O)N[C@@H](CS)C(=O)N[C@@H](Cc1ccc(O)cc1)C(=O)N[C@@H](Cc1c[nH]c2ccccc12)C(=O)N[C@@H](Cc1cnc[nH]1)C(=O)N[C@H](C(=O)N[C@@H](Cc1ccccc1)C(=O)NCC(=O)NCCOCCC(=O)N[C@@H](CCCCN)C(=O)O)[C@@H](C)O)C(C)C`, `CC(=O)N[C@@H](CS)C(=O)N[C@@H](C)C(=O)N[C@@H](CC(=O)O)C(=O)N[C@@H](Cc1c[nH]c2ccccc12)C(=O)N[C@H](C(=O)N[C@@H](CS)C(=O)N[C@@H](Cc1ccc(O)cc1)C(=O)N[C@@H](Cc1c[nH]c2ccccc12)C(=O)N(C)[C@@H](Cc1cnc[nH]1)C(=O)N[C@H](C(=O)N[C@@H](Cc1ccccc1)C(=O)NCC(=O)NCCOCC(=O)N[C@H](CCCCN)C(N)=O)[C@@H](C)O)C(C)C` is higher in IC50: under 0.5 µM for the first, over 1 µM for the second.

`N=C(N)NCCC[C@H](NC(=O)[C@H](Cc1c[nH]c2ccccc12)NC(=O)[C@H](Cc1ccc(O)cc1)NC(=O)[C@@H]1CSCCC(=O)N[C@@H](CCC(N)=O)C(=O)N[C@@H](CC(=O)O)C(=O)N[C@@H](Cc2c[nH]c3ccccc23)C(=O)N[C@@H](CCC(N)=O)C(=O)N1)C(=O)N[C@@H](CCC(=O)O)C(=O)N[C@@H](CC(N)=O)C(=O)NCC(=O)NCCOCC(=O)N[C@H](CCCCN)C(N)=O` and `CC(=O)NCCCC[C@H](NC(=O)[C@](C)(CCCCN)NC(=O)[C@H](CCC(=O)OCc1ccccc1)NC(=O)[C@H](Cc1ccc(OCCN)cc1)NC(=O)[C@@H]1CSCC[C@H](NC(C)=O)C(=O)N[C@@H](CN)C(=O)N[C@@H]([C@@H](C)O)C(=O)N[C@@H](Cc2c[nH]c3ccccc23)C(=O)N[C@@H](CCC(N)=O)C(=O)N1)C(=O)N[C@@H](CC(N)=O)C(=O)NCC(N)=O` (Ac-[Abu(4-yl)][Dap]TWQC[AEF]E(OBn)[αMeK]K(Ac)NG-NH2; thioether 1-6) cannot be ordered by IC50: 30 µM for the first, over 3 µM for the second.

Compared with `CC(=O)NCCCC[C@H](NC(=O)[C@](C)(CCCCN)NC(=O)[C@@H]1Cc2ccccc2CN1C(=O)[C@H](Cc1ccc(OCCN)cc1)NC(=O)[C@@H]1CSCC[C@H](NC(C)=O)C(=O)N[C@@H](CN)C(=O)N[C@@H]([C@@H](C)O)C(=O)N[C@@H](Cc2c[nH]c3ccccc23)C(=O)N[C@@H](CCC(N)=O)C(=O)N1)C(=O)N[C@@H](CC(N)=O)C(=O)NCC(N)=O` (Ac-[Abu(4-yl)][Dap]TWQC[AEF][Tic][αMeK]K(Ac)NG-NH2; thioether 1-6), `CC(=O)N[C@H]1CCSC[C@@H](C(=O)N[C@@H](Cc2ccc(Cl)c(Cl)c2)C(=O)N[C@@H](Cc2ccc3ccccc3c2)C(=O)NC(C)(C)C(=O)N[C@@H](CCC(=O)O)C(=O)N[C@@H](CC(N)=O)C(=O)NCC(N)=O)NC(=O)[C@H](CCC(N)=O)NC(=O)[C@H](Cc2c[nH]c3ccccc23)NC(=O)[C@H]([C@@H](C)O)NC(=O)[C@H](CCC(N)=O)NC1=O` is lower in IC50: over 3 µM for the first, 0.1 to 1 µM for the second.

`CC(=O)N[C@@H](C)C(=O)N[C@@H](CS)C(=O)N[C@@H](CC(=O)O)C(=O)N[C@@H](Cc1c[nH]c2ccccc12)C(=O)N[C@H](C(=O)N[C@H](C(=O)N[C@@H](Cc1ccc(O)cc1)C(=O)N[C@@H](Cc1c[nH]c2ccccc12)C(=O)N[C@@H](CCCNC(=N)N)C(=O)N[C@@H](CCCCN)C(=O)N[C@@H](Cc1ccccc1)C(=O)NCC(=O)NCCOCC(=O)N[C@H](CCCCN)C(N)=O)C(C)(C)S)C(C)C` and `CCC(CC)(NC(=O)[C@H](CCCN)NC(=O)[C@H](Cc1c[nH]c2ccccc12)NC(=O)[C@H](Cc1ccc(O)cc1)NC(=O)[C@H](CS)NC(=O)[C@@H](NC(=O)[C@H](Cc1c[nH]c2ccccc12)NC(=O)[C@H](CC(=O)O)NC(=O)[C@H](C)NC(=O)[C@H](CS)NC(C)=O)C(C)C)C(=O)N[C@@H](Cc1ccccc1)C(=O)NCC(=O)NCCOCC(=O)N[C@H](CCCCN)C(N)=O` cannot be ordered by IC50: 1 to 10 µM for the first, 6 µM for the second.

`CC(=O)N[C@@H](CS)C(=O)N[C@@H](C)C(=O)N[C@@H](CC(=O)O)C(=O)N[C@@H](Cc1c[nH]c2ccccc12)C(=O)N[C@H](C(=O)N[C@@H](CS)C(=O)N[C@@H](Cc1ccc(O)cc1)C(=O)N[C@@H](Cc1ccc(C(F)(F)F)cc1)C(=O)N[C@@H](CCCN)C(=O)N[C@@H](CN)C(=O)N[C@@H](Cc1ccccc1)C(=O)NCC(=O)NCCOCC(=O)N[C@H](CCCCN)C(N)=O)C(C)C` and `CC(=O)N[C@@H](CS)C(=O)N[C@@H](C)C(=O)N[C@@H](CC(=O)O)C(=O)N[C@@H](Cc1c[nH]c2ccccc12)C(=O)N[C@H](C(=O)N[C@@H](CS)C(=O)N[C@@H](Cc1ccc(O)cc1)C(=O)N[C@H](C(=O)N[C@@H](CCCN)C(=O)N[C@@H](CN)C(=O)N[C@@H](Cc1ccccc1)C(=O)NCC(=O)NCCOCC(=O)N[C@H](CCCCN)C(N)=O)C1CCC(c2ccccc2)CC1)C(C)C` (stereo partly specified) cannot be ordered by IC50: over 1 µM for the first, over 3 µM for the second.

Going from `CC(C)[C@H](NC(=O)[C@H](Cc1c[nH]c2ccccc12)NC(=O)[C@H](CC(=O)O)NC(=O)[C@H](CS)NC(=O)[C@H](C)N)C(=O)N[C@@H](CS)C(=O)N[C@@H](Cc1ccc(O)cc1)C(=O)N[C@@H](Cc1c[nH]c2ccccc12)C(=O)N[C@@H](Cc1cnc[nH]1)C(=O)N[C@H](C(=O)N[C@@H](Cc1ccccc1)C(=O)NCC(N)=O)[C@@H](C)O` to `CC(=O)N[C@@H](CS)C(=O)N[C@@H](C)C(=O)N[C@@H](CC(=O)O)C(=O)N[C@@H](Cc1c[nH]c2ccccc12)C(=O)N[C@H](C(=O)N[C@@H](CS)C(=O)N[C@@H](Cc1ccc(O)cc1)C(=O)N[C@@H](Cc1c[nH]c2ccccc12)C(=O)N[C@@H](Cc1cnc[nH]1)C(=O)N[C@H](C(=O)N[C@@H](Cc1ccccc1)C(=O)NCC(=O)O)[C@@H](C)O)C(C)C`, the IC50 falls from over 1 µM to under 0.5 µM. The second is the more potent here.

First: CC(=O)N[C@@H](CS)C(=O)N[C@@H](CCC(N)=O)C(=O)N[C@H](C(=O)N[C@@H](Cc1c[nH]c2ccccc12)C(=O)N[C@@H](CCC(N)=O)C(=O)N[C@@H](CS)C(=O)N[C@@H](CCc1ccc(O)cc1)C(=O)N[C@@H](Cc1c[nH]c2ccccc12)C(=O)N[C@@H](CCC(C)C)C(=O)N[C@@H](CCC(=O)O)C(=O)N[C@@H](CC(N)=O)C(=O)NCC(N)=O)[C@@H](C)O
Second: CC(=O)N[C@@H](CS)C(=O)N[C@@H](CCC(N)=O)C(=O)N[C@H](C(=O)N[C@@H](Cc1c[nH]c2ccccc12)C(=O)N[C@@H](CCC(N)=O)C(=O)N[C@@H](CS)C(=O)N(C)[C@@H](Cc1ccc(O)cc1)C(=O)N[C@@H](Cc1c[nH]c2ccccc12)C(=O)N[C@@H](CCC(C)C)C(=O)N[C@@H](CCC(=O)O)C(=O)N[C@@H](CC(N)=O)C(=O)NCC(N)=O)[C@@H](C)O
The IC50 of the first is lower: 6 µM for the first, over 30 µM for the second.

`CC(=O)N[C@@H](CS)C(=O)N[C@@H](CCCNC(=N)N)C(=O)N[C@H](C(=O)N[C@@H](Cc1c[nH]c2ccccc12)C(=O)N[C@@H](CCC(N)=O)C(=O)N[C@@H](CS)C(N)=O)[C@@H](C)O` (Ac-CRTWQC-NH2) and `CC(=O)N[C@@H](CS)C(=O)N[C@@H](CCC(N)=O)C(=O)N[C@H](C(=O)N[C@@H](Cc1c[nH]c2ccccc12)C(=O)N[C@@H](CCC(N)=O)C(=O)N[C@@H](CS)C(=O)N[C@@H](Cc1ccc(O)cc1)C(=O)N1Cc2ccccc2C[C@H]1CC(=O)N[C@@H](CCCNC(=N)N)C(=O)N[C@H](C(=O)N[C@@H](CC(N)=O)C(=O)NCC(=O)NCCOCC(=O)N[C@H](CCCCN)C(N)=O)C(C)C)[C@@H](C)O` cannot be ordered by IC50: over 30 µM for the first, over 30 µM for the second.

First: CC(=O)N[C@H](C(=O)N[C@@](C)(CCCN)C(=O)N[C@H](C(=O)N[C@@H](Cc1c[nH]c2ccccc12)C(=O)N[C@@H](CCC(N)=O)C(=O)N[C@H](C(=O)N[C@@H](Cc1ccc(OCCN)cc1)C(=O)N[C@@H](Cc1ccc2ccccc2c1)C(=O)N[C@@](C)(CCCCN)C(=O)N[C@@H](CCC(=O)O)C(=O)N[C@@H](CC(N)=O)C(=O)NCC(N)=O)C(C)(C)S)[C@@H](C)O)C(C)(C)S
Second: CC(=O)N[C@@H](CS)C(=O)N[C@@H](CCC(N)=O)C(=O)N[C@H](C(=O)N[C@@H](Cc1c[nH]c2ccccc12)C(=O)N[C@@H](CCC(N)=O)C(=O)N[C@@H](CS)C(=O)N[C@@H](Cc1ccc(O)cc1)C(=O)N[C@@](C)(Cc1c[nH]c2ccccc12)C(=O)N[C@@H](CCCNC(N)=O)C(=O)N[C@@H](CCC(C)C)C(=O)N[C@@H](CC(N)=O)C(=O)NCC(=O)NCCC(=O)N[C@H](CCCCN)C(N)=O)[C@@H](C)O
The IC50 of the first is lower: 0.1 to 1 µM for the first, 6 µM for the second. The first is the more potent here.

First: N=C(N)NCCC[C@H](NC(=O)[C@H](Cc1cnc[nH]1)NC(=O)[C@H](Cc1c[nH]c2ccccc12)NC(=O)[C@H](Cc1ccc(O)cc1)NC(=O)[C@H](CS)NC(=O)[C@H](CCC(=O)O)NC(=O)[C@H](Cc1c[nH]c2ccccc12)NC(=O)[C@H](CC(N)=O)NC(=O)[C@@H]1CCCN1C(=O)[C@@H](N)CS)C(=O)N[C@@H](Cc1ccccc1)C(=O)NCC(N)=O (H-CPNWECYWHRFG-NH2)
Second: C[C@@H](O)[C@H](NC(=O)[C@H](CCC(=O)O)NC(=O)[C@@H](N)CS)C(=O)N[C@@H](Cc1c[nH]c2ccccc12)C(=O)N[C@@H](CCC(=O)O)C(=O)N[C@@H](CS)C(=O)N[C@@H](Cc1ccc(O)cc1)C(=O)N[C@@H](Cc1c[nH]c2ccccc12)C(=O)N[C@@H](Cc1cnc[nH]1)C(=O)N[C@@H](CO)C(=O)N[C@@H](Cc1ccccc1)C(=O)N[C@@H](CO)C(N)=O (H-CETWECYWHSFS-NH2)
The IC50 of the first is lower: 0.5 to 1 µM for the first, over 1 µM for the second.

Work on `CC(=O)N[C@@H](CS)C(=O)N[C@@H](C)C(=O)N[C@@H](CC(=O)O)C(=O)N[C@@H](Cc1c[nH]c2ccccc12)C(=O)N[C@H](C(=O)N[C@@H](CS)C(=O)N[C@@H](Cc1ccc(O)cc1)C(=O)N[C@@H](Cc1cccc2ccccc12)C(=O)N[C@@H](Cc1cnc[nH]1)C(=O)N[C@H](C)C(=O)N[C@@H](Cc1ccccc1)C(=O)NCC(N)=O)C(C)C` yielded an IC50 of over 1 µM.
